Experimental data from patent US20080268477A1, “Antibody Reactive Specifically to Age Derived from 3,4-Dge” (JMS CO., LTD., priority 2005, published 2008).
One block for each compound: values may come before it.

Columns and labels:
BSA [1] = target: T1, BSA (Bos taurus, UniProt P02769); test: ELISA for known AGEs (pentosidine, CML, MRX) in reaction product; design: species or system bovine
T1 construct: purchased SIGMA A-0281
Protocol: With respect to the above-mentioned sample solutions obtained using the carbonyl compounds (3,4-DGE, 3-DG, GO, and MGO), it was evaluated by ELISA whether pentosidine, carboxymethyllysine (CML), and Maillard reaction products (MRX: 8-hydroxy-5-methyldihydrothiazolo[3,2-alpha]) that were known AGEs had been produced or not. As a result, in the reaction solution obtained using GO, production of CML of 3.025 molecules per BSA molecule was found already after 24 hours incubation and production of CML of 3.7 molecules per BSA molecule was found after 168 hours incubation. In the reaction solution obtained using MGO, pentosidine of 0.0028 molecule per BSA molecule was found after 168 hours incubation. […] Accordingly, it can be said that the AGEs formed with 3,4-DGE are clearly different from conventionally known AGEs.

BSA [2] = target: T1, BSA; test: appearance (browning) of reaction solution of carbonyl compound and BSA; design: species or system bovine; details: 25 mM carbonyl compound, BSA 5 mg/ml, 37° C.; for browning of reaction solution: 168 hours
Protocol: AGEs were formed from proteins, BSA, using carbonyl compounds (3,4-DGE, MGO, GO, 3-DG, and Glu). First, BSA (manufactured by SIGMA; Trade Name: A-0281) was dissolved in PBS (pH 7.4) so as to have a concentration of 5 mg/ml (6.2 mM of basic amino acid residues). Thus a BSA solution was prepared. Then each carbonyl compound was added to the BSA solution so as to have a concentration of 25 mM (4-equivalent relative to the basic amino acid residues in the BSA). This was incubated at 37° C. for predetermined times (2, 4, 8, 24, 72, and 168 hours). The respective carbonyl compounds used herein were 500 mM 3,4-DGE aqueous solution (prepared in house), 40% MGO aqueous solution (manufactured by SIGMA), 40% GO aqueous solution (manufactured by Wako Pure Chemical Industries, Ltd.), 3-DG (manufactured by Dojindo Laboratories Co., Ltd.), and Glu (Pharmacopeia, manufactured by San-ei Sucrochemical Co, Ltd.). The BSA solution was incubated in the same manner as described above, with no carbonyl compounds being added thereto. This was used as a control. The appearances of the reaction solutions obtained after 168 hours incubation are shown in the photograph in FIG. 9.

[3] = test system: Human peritoneal mesothelial cells (HPMCs); test: cytotoxic test of AGE-proteins (WST-1); type: cell-based; details: 1 mg/mL AGE-protein, four days
Protocol: In order to examine the biological activities of AGE-proteins derived from various carbonyl compounds, a cytotoxic test was carried out. The AGE-proteins used herein were 3,4-DGE-BSA, MGO-BSA, GO-BSA, and AA-BSA that had been prepared in the same manner as in Example 3.
Human peritoneal mesothelial cells (HPMCs) that had been suspended in FBS-M199 medium were seeded into a 96-well plate (manufactured by Iwaki) in an amount of 3400 cells/well and then were cultured overnight. Adherent cells in each well were exposed to M199 medium (0.1 ml/well) containing 8.4% FBS in which AGE-proteins had been dissolved in such a manner as to be 1 mg/mL, and were cultured for four days. After completion of the exposure, the medium was removed. Thereafter, the adherent cells were cultured in M199 medium containing a 10% chromogenic substrate (Trade Name: WST-1; manufactured by TAKARA BIO, INC.). Then the absorbance at a wavelength of 450 nm was measured 40 minutes later and thereby the viable cell count was determined. The result is shown in the graph in FIG. 15. In FIG. 15, “DGE-BSA” denotes “3,4-DGE-BSA”.

BSA [4] = target: T1, BSA; test: SDS-PAGE of reaction product; design: species or system bovine; details: samples of 2 to 168 hours reaction
Protocol: The samples obtained using 3,4-DGE and MGO each were subjected to SDS-PAGE. The results are shown in the electrophoretograms in FIG. 13. […] The lanes show the results with respect to the molecular-weight marker, native BSA, and samples (2, 4, 8, 24, 72, and 168 hours) sequentially from the left.

BSA [5] = target: T1, BSA; test: isoelectric focusing of reaction product; design: species or system bovine; details: reaction product with BSA
Protocol: A pI marker was electrophoresed beforehand and then a calibration curve between pI and mobility was created. Then the aforementioned sample solutions also were electrophoresed. With a region stained deepest in each sample being taken as the center of the band, the isoelectric point was calculated using the calibration curve.

BSA [6] = target: T1, BSA; test: reactivity with protein by fluorescence intensity (Reference Example 2); design: species or system bovine; details: 30 mmol/L carbonyl compound, BSA 10 mg/ml, 37° C., 24 hours
Protocol: BSA was dissolved in PBS (pH 7.4) so as to be 10 mg/ml. Various carbonyl compounds each were added thereto in such a manner as to have a concentration of 30 mmol/L. Then they were allowed to react at 37° C. for 24 hours. After the reaction, denaturation (AGE formation) of the BSA was evaluated according to the fluorescence intensity (at an excitation wavelength of 360 nm and a fluorescence wavelength of 430 nm) of the reaction solutions.

BSA [7] = target: T1, BSA; test: fluorescence intensity of reaction solution of carbonyl compound and BSA (Reference Example 1); design: species or system bovine; details: excitation 360 nm, fluorescence 430 nm
Protocol: AGEs were formed from proteins, BSA, using carbonyl compounds (3,4-DGE, MGO, GO, 3-DG, and Glu). First, BSA (manufactured by SIGMA; Trade Name: A-0281) was dissolved in PBS (pH 7.4) so as to have a concentration of 5 mg/ml (6.2 mM of basic amino acid residues). Thus a BSA solution was prepared. Then each carbonyl compound was added to the BSA solution so as to have a concentration of 25 mM (4-equivalent relative to the basic amino acid residues in the BSA). This was incubated at 37° C. for predetermined times (2, 4, 8, 24, 72, and 168 hours). […]
The reaction solutions incubated as described above were sampled and these reaction solutions thus sampled were applied to desalting columns (Trade Name: PD-10, manufactured by Amersham Pharmacia Biotech) to be desalted. With respect to the reaction solutions thus desalted, the BSA concentration was measured using BCA protein assay kit (manufactured by Pierce). […] Then the fluorescence intensity was measured at an excitation wavelength of 360 nm and a fluorescence wavelength of 430 nm (measuring apparatus: Trade Name SPECTRAFLUOR PLUS, manufactured by TECAN). […]

BSA [8] = target: T1, BSA; test: amino acid analysis of Arg and Lys residues in reaction product; design: species or system bovine; details: residual ratio vs untreated native BSA
Protocol: The aforementioned sample solutions were freeze-dried and then were acid-hydrolyzed in 6N hydrochloric acid (120° C., 24 hours). According to a conventionally known method, these were derivatized with dansyl chloride and were isolated with HPLC. Then the amounts of arginine (Arg) and lysine (Lys) residues in the samples were determined (n=3). FIG. 11(A) is a graph showing the residual ratios of the Arg residues, while FIG. 11(B) is a graph showing the residual ratios of the Lys residues. The residual ratio indicates a percentage that is obtained with the amount of residues in untreated native BSA being taken as 100%.

T1 sequence (P02769 25-607): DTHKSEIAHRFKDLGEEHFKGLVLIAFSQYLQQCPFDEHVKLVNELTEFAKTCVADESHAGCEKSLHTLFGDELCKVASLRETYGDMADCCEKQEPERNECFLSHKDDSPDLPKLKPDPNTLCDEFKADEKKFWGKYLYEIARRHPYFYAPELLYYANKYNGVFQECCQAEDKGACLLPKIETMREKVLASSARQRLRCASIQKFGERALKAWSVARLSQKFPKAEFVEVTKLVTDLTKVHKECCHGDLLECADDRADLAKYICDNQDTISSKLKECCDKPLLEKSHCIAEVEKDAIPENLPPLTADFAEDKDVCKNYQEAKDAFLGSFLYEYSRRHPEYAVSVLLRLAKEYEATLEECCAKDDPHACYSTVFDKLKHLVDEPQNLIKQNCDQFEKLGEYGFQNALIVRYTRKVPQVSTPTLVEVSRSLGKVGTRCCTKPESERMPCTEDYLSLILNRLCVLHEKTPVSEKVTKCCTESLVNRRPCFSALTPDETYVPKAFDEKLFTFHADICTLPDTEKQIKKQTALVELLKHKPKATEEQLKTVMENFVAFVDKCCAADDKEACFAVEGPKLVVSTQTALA

Compound: O=CC=O [GO, glyoxal]
production of CML (BSA [1]; after 24 hours incubation): 3.025 molecules per BSA molecule
production of CML (BSA [1]; after 168 hours incubation): 3.7 molecules per BSA molecule
browning of reaction solution (BSA [2]): observed

browning of reaction solution (BSA [2]): observed
Compound: O=CC(=O)C[C@H](O)[C@H](O)CO [Example 3-DG, 3-deoxyglucosone]

Compound: 3,4-DGE-BSA: AGE-protein formed from bovine serum albumin with 3,4-DGE
activity of the cells (viable cell count) [3]: approximately 25%

Compound: CC(=O)C=O [MGO, methylglyoxal]
pentosidine (BSA [1]; after 168 hours incubation): 0.0028 molecule per BSA molecule
browning of reaction solution (BSA [2]): observed

fluorescence of BSA solution (AGE formation) (BSA [6]): very strong fluorescence
reaction time at which fluorescence nearly achieved equilibrium (BSA [7]): ~24 h
fluorescence intensity (BSA [7]; compared to other carbonyl compounds): very high fluorescence intensity
time until reaction solution was colored (BSA [2]): approximately two
browning of reaction solution (BSA [2]): deep brown
free Arg and Lys residues in reaction product (BSA [8]): reduced
Compound: O=CC(=O)C=CC(O)CO (stereo not shown) [3,4-DGE, 3,4-dideoxyglucosone-3-ene]
change in SDS-PAGE band (BSA [4]): disturbance in the band is observed after 2 to 4 hours reaction
change in isoelectric point (BSA [5]): shift toward the acidic side after 24 hours reaction
production of CML, pentosidine, MRX (BSA [1]; ELISA of reaction solution): production of neither CML, pentosidine, or MRX was found
